Source: ChEMBL document CHEMBL1132811, “Bisquaternary caracurine V derivatives as allosteric modulators of ligand binding to M2 acetylcholine receptors” (Bioorg Med Chem Lett, 2000)

These compounds were tested against T1, Muscarinic acetylcholine receptor M2 (Sus scrofa, UniProt P06199) (assay: Allosteric inhibition of [3H]NMS (N-methyl-scopolamine) dissociation from porcine cardiac Muscarinic acetylcholine receptor M2).
T1 sequence (P06199 whole entry): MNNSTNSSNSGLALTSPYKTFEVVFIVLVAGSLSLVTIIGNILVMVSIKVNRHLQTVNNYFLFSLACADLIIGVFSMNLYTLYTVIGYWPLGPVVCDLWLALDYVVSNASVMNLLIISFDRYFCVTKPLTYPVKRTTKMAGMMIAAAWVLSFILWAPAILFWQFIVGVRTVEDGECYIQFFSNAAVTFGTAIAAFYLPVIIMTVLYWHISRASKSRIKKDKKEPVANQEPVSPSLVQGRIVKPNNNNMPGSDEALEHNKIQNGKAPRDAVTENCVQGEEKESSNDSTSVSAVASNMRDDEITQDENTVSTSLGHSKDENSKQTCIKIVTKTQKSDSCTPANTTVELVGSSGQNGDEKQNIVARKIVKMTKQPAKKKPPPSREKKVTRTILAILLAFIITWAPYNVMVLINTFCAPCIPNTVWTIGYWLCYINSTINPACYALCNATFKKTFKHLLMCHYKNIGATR
C1=C2C[N@+]3(Cc4ccccc4)CC[C@]45c6ccccc6N6[C@@H]7OCC=C8C[N@+]9(Cc%10ccccc%10)CC[C@]%10%11c%12ccccc%12N([C@H](OC1)[C@@H]([C@H]64)[C@H]2C[C@@H]53)[C@H]%10[C@H]7[C@H]8C[C@@H]%119 showed an EC50 of 0.069 µM.
Work on C=CC[N+]12CCC34c5ccccc5N5[C@@H]6OCC=C7C[N+]8(CC=C)CCC9%10c%11ccccc%11N([C@@H]%11OCC=C(C1)[C@H](C[C@@H]32)[C@@H]%11[C@H]54)[C@H]9[C@H]6[C@H]7C[C@@H]%108 (some centres not stated) yielded an EC50 of 0.003 µM.
C1=C2CN3CCC45c6ccccc6N6[C@@H]7OCC=C8CN9CCC%10%11c%12ccccc%12N([C@H](OC1)[C@@H]([C@H]64)[C@H]2C[C@H]35)[C@H]%10[C@H]7[C@H]8C[C@H]9%11 (some centres not stated) gave an EC50 of 1.19 µM.
Work on CCC[N+]12CCC34c5ccccc5N5[C@@H]6OCC=C7C[N+]8(CCC)CCC9%10c%11ccccc%11N([C@@H]%11OCC=C(C1)[C@H](C[C@@H]32)[C@@H]%11[C@H]54)[C@H]9[C@H]6[C@H]7C[C@@H]%108 (some centres not stated) yielded an EC50 of 0.03 µM.
In the case of C[N+]12CCC34c5ccccc5N5[C@@H]6OCC=C7C[N+]8(C)CCC9%10c%11ccccc%11N([C@@H]%11OCC=C(C1)[C@H](C[C@@H]32)[C@@H]%11[C@H]54)[C@H]9[C@H]6[C@H]7C[C@@H]%108 (some centres not stated), the EC50 is reported as 0.008 µM.
Compound O=C1c2ccccc2C(=O)N1CCC[N+]12CCC34c5ccccc5N5[C@@H]6OCC=C7C[N+]8(CCCN9C(=O)c%10ccccc%10C9=O)CCC9%10c%11ccccc%11N([C@@H]%11OCC=C(C1)[C@H](C[C@@H]32)[C@@H]%11[C@H]54)[C@H]9[C@H]6[C@H]7C[C@@H]%108 (some centres not stated) has an EC50 of 0.376 µM.
In the case of O=[N+]([O-])c1ccc(C[N+]23CCC45c6ccccc6N6[C@@H]7OCC=C8C[N+]9(Cc%10ccc([N+](=O)[O-])cc%10)CCC%10%11c%12ccccc%12N([C@@H]%12OCC=C(C2)[C@H](C[C@@H]43)[C@@H]%12[C@H]65)[C@H]%10[C@H]7[C@H]8C[C@@H]%119)cc1 (some centres not stated), the EC50 is reported as 0.315 µM.
Compound Brc1ccc(C[N+]23CCC45c6ccccc6N6[C@@H]7OCC=C8C[N+]9(Cc%10ccc(Br)cc%10)CCC%10%11c%12ccccc%12N([C@@H]%12OCC=C(C2)[C@H](C[C@@H]43)[C@@H]%12[C@H]65)[C@H]%10[C@H]7[C@H]8C[C@@H]%119)cc1 (some centres not stated) has an EC50 of 0.507 µM.
For C1=C2C[N+]3(Cc4ccc5ccccc5c4)CCC45c6ccccc6N6[C@@H]7OCC=C8C[N+]9(Cc%10ccc%11ccccc%11c%10)CCC%10%11c%12ccccc%12N([C@H](OC1)[C@@H]([C@H]64)[C@H]2C[C@@H]53)[C@H]%10[C@H]7[C@H]8C[C@@H]%119 (some centres not stated), the EC50 was 1.56 µM.
With FC(F)(F)c1ccc(C[N+]23CCC45c6ccccc6N6[C@@H]7OCC=C8C[N+]9(Cc%10ccc(C(F)(F)F)cc%10)CCC%10%11c%12ccccc%12N([C@@H]%12OCC=C(C2)[C@H](C[C@@H]43)[C@@H]%12[C@H]65)[C@H]%10[C@H]7[C@H]8C[C@@H]%119)cc1 (some centres not stated) the EC50 was 1.75 µM.
In the case of COc1ccc(C[N+]23CCC45c6ccccc6N6[C@@H]7OCC=C8C[N+]9(Cc%10ccc(OC)c(OC)c%10)CCC%10%11c%12ccccc%12N([C@@H]%12OCC=C(C2)[C@H](C[C@@H]43)[C@@H]%12[C@H]65)[C@H]%10[C@H]7[C@H]8C[C@@H]%119)cc1OC (some centres not stated), the EC50 is reported as 0.342 µM.
In the case of C#CC[N+]12CCC34c5ccccc5N5[C@@H]6OCC=C7C[N+]8(CC#C)CCC9%10c%11ccccc%11N([C@@H]%11OCC=C(C1)[C@H](C[C@@H]32)[C@@H]%11[C@H]54)[C@H]9[C@H]6[C@H]7C[C@@H]%108 (some centres not stated), the EC50 is reported as 0.004 µM.
